Experiments:
Assay type in all cases: in vivo, mouse
[1] = tested on: IL-4, IL-5, IL-13, IL-17, KC; experiment: Cytokines and chemokines in lung tissues by Western blotting, mice with neutrophilic severe asthma; conditions: Western blotting of lung tissue proteins; OVA+LPS-induced asthma; FIGS. 4A to 4E
Excerpt: (§1) 8-week old female C57BL/6 mice were purchased from Orient Bio (Sungnam, Korea) and used as experimental animals. Experimental groups were divided into 4 groups and 5 C57BL/6 mice were assigned to each group. Animals in one experimental group were inhaled with saline and treated with vehicle. Animals in the other three experimental groups were sensitized with ovalbumin (OVA) and lipopolysaccharide (LPS), followed by inhalation of ovalbumin to induce asthma. Animals with induced asthma in one experimental group were treated with vehicle 1 hour before the first inhalation of ovalbumin and 6 hours after the last inhalation of ovalbumin. […]
Quantitation of cytokines and chemokines was confirmed by Western blotting of the proteins in lung tissues. […] Then, the samples were loaded on SDS-PAGE gel and quantitated using an anti-IL-4 antibody (Serotec, UK) against IL-4, an anti-IL-5 antibody (SantaCruz Biotechnology, USA) against IL-5, anti-IL-13 and anti-IL-17 antibodies (R&D Systems, USA) against IL-13 and IL-17, and an anti-KC antibody against keratinocyte-induced chemokine (KC) (BioVision, USA), and the results are shown in FIGS. 4A to 4E.

[2] = tested on: mice with neutrophilic severe asthma; experiment: Peribronchitis and perivascular inflammation in lung tissues (H&E histology) of mice with neutrophilic severe asthma; conditions: C57BL/6 mice, OVA+LPS-induced asthma; H&E stained lung sections, optical microscope 20×; FIG. 2
Excerpt: as §1, with “ovalbumin. Animals in the other two experimental groups were intraperitoneally administered with 60 μg/kg and […] of the PKR inhibitor [6,8-Dihydro-8-(1H-imidazol-5-ylmethylene)-7H-pyrrolo[2,3-g]benzothiazol-7-one] a total of two times, 1 hour before the first inhalation of ovalbumin and 6 hours after the last inhalation of ovalbumin.” for “ovalbumin.”

[3] = tested on: mice with neutrophilic severe asthma; experiment: Bronchial hyperresponsiveness (Rrs) to aerosol methacholine in mice with neutrophilic severe asthma; conditions: methacholine 5.0 to 50 mg/ml by nebulizer; compared to the group treated with vehicle only; FIG. 3
Excerpt: as §1
In order to identify the effects of the PKR inhibitor of the present invention on bronchial hyperresponsiveness in mouse models with neutrophilic severe asthma, aerosol methacholine was administered into the airways of mice, and then the changes in airway function were measured. […] At the same time, the mice were administered with methacholine through the ventilator while gradually increasing the dose from 5.0 mg/ml to 50 mg/ml using a nebulizer, and the bronchial hyperresponsiveness (Rrs) was continuously measured. The bronchial hyperresponsiveness was assessed as a percentage of the basal value when the maximum of Rrs values measured at each methacholine concentration was administered to saline control, and the results are shown in FIG. 3.

O=C1Nc2ccc3ncsc3c2/C1=C/c1c[nH]cn1 [PKR inhibitor, 6,8-Dihydro-8-(1H-imidazol-5-ylmethylene)-7H-pyrrolo[2,3-g]benzothiazol-7-one]
cytokines and chemokines in lung tissues (IL-4, IL-5, IL-13, IL-17, KC) [1]: reduced | level of airway inflammation in lung tissues [2]: significantly reduced | Rrs values (bronchial hyperresponsiveness) [3]: significantly reduced | airway resistance dose response curves [3]: shifted to the right

From US20180000794A1, “COMPOSITION FOR PREVENTION OR TREATMENT OF BRONCHIAL ASTHMA COMPRISING PKR INHIBITOR AS ACTIVE INGREDIENT” (INDUSTRIAL COOPERATION FOUNDATION CHONBUK NATIONAL …, priority 2015, published 2018)
